Common to all, as to type: in vivo, human
The test system of experiment [1] is hangover headache. Description: Example 74: analgesic effect on severe hangover headache, topical. Particulars: 0.5% (w/v) in WEP442, topical. An excerpt:
They were provided a solution composition containing 0.5% (w/v) of N-Ac-Tyr-Pro-Phe-Phe-NH2 (SEQ ID NO: 23) in WEP442 which they topically applied to the neck, peripheral scalp, and entire face and forehead.

Experiment [2] has as its system psoriatic arthritis in the joints of both feet. Description: Example 62: analgesic efficacy of psoriatic arthritis, feet, topical. To be noted: 1% (w/v) in WEP442, topical. As to the method: A subject with plague psoriasis had painful psoriatic arthritis in the joints of both feet for the past 10-12 years. Topical application of a composition containing 1% (w/v) of N-Ac-Tyr-Pro-Phe-Phe-NH2 (SEQ ID NO: 23) in WEP442 relieved the pain so that it was undetectable for 6-8 hours. Daily topical applications of the formulation for 5 days provided the same relief.

For experiment [3], the system named is knee pain, lateral meniscus. Description: Example 58: analgesic effect on knee pain due to injured lateral meniscus, topical. Particulars: 1% (w/v) in WEP442, topical. The text has this: A subject had knee pain at the site of the lateral meniscus of the right knee, secondary to repeated trauma in the course of their work as a house builder. They evaluated two (2) tetrapeptide derivatives for efficacy in relieving this pain, including N-Ac-Tyr-Pro-Phe-Phe-NH2 (SEQ ID NO: 23) and N-Pg-Tyr-Pro-Phe-Phe-NH2 (SEQ ID NO: 44), both as a 1% (w/v) solution composition in WEP442. One solution composition was topically applied during the course of a day; and the other solution composition was topically applied during the course of the following day. The evaluation continued over a period of 8 days in this schedule.

Experiment [4] deals with psoriatic arthritis pain, fingers and wrists. Description: Example 48: comparative analgesic efficacy, psoriatic arthritis pain of fingers and wrists, topical. Particulars: 1% (w/v) in WEP442, topical. The text has this: […] Treatment of the subject over the years included methotrexate and other antimetabolites, and in recent years drugs known as biologic medications. While these agents have provided intervals of relief, none has provided a lasting benefit. Over the past decade, painful arthritis developed in both wrists and in numerous joints of the fingers. Four related tetrapeptide derivatives, 1% (w/v) solution compositions in vehicle WEP442, one at a time, were topically applied to the fingers and wrists of both hands. […] Efficacy was rated by the subject as 4+. • (B) N-Ac-Tyr-Pro-Phe-Phe-NHNH2 (SEQ ID NO: 31) provided slow relief of pain, i.e. within about 10 minutes. […] Analgesic efficacy was judged by the subject to be 0 to 1+.

In experiment [5] the test system is chronic right shoulder pain. Description: Example 7: analgesic effect on shoulder pain, topical. The text has this:
A subject had chronic right shoulder pain. The subject was unable to lift their arm above chest level. The subject topically applied an anhydrous solution composition containing 0.5% (w/v) N-Ac-Tyr-Pro-Phe-Phe-NH2(SEQ ID NO: 23) in EP73, formulated as described in the Example 2, on their right shoulder at night. The next morning, 70% relief of pain was observed. The subject re-applied the composition at bedtime. The following morning, 85-90% relief was observed and they were able to lift their arm above their head with only minor discomfort.

Experiment [6] deals with jammed middle finger, pain and swelling. Description: Example 15: analgesic effect on injured fingers, topical. Particulars: 1% (w/v) in WEP442, topical. The text has this: A subject, jammed their middle finger causing severe pain and swelling (inflammation). The subject topically applied a composition containing 1% (w/v) N-Ac-Tyr-Pro-Phe-Phe-NH2 ([…]) in WEP442 to the affected finger.

For experiment [7], the system named is pain from MTSS. Description: Example 22: analgesic effect on medial tibial stress syndrome, topical. An excerpt: A small statured person, caretaker of an over-weight disabled elderly person, every evening suffers pain from MTSS of the left lower leg that is due to repeated use of the left leg to lift their patient throughout the day. Their sleeping has been repeatedly disturbed by the pain. […] They followed this sequence of procedures daily for one week work shift with the same result of rapid absolute relief of pain. During the week of being off from work, the MTSS is absent.

Experiment [8] has as its system severe migraine. Description: Example 13: analgesic effect on chronic migraine headache, topical. Particulars: 1% (w/v) in WEP442, topical. An excerpt: One late afternoon, the subject developed severe pain in those areas, accompanied by feelings of vertigo and nausea. The subject topically applied a composition containing 1% (w/v) N-Ac-Tyr-Pro-Phe-Phe-NH2, (SEQ ID NO: 23) in WEP442 to the entire occipital scalp, including the peri-auricular areas.

The subject of experiment [9] is knee pain and foot pain. Description: Example 71: analgesic effect on foot sprain and knee pain following patella fracture, topical. Particulars: 0.5% (w/v) in WEP442, topical. An excerpt: A subject suffered severe pain in their left knee and in the arch of their left foot following a forward fall to a wooden floor. Diagnoses of multiple fractures of the patella and a bruised foot were made by x-ray. Surgical repair of the knee was done, following which severe knee pain and acute pain in the arch of the foot persisted. […] Topical applications 3-4 times daily allowed the subject to pursue rehabilitation procedures pain free.

The subject of experiment [10] is very severe osteoarthritis of the knees. Description: Example 45: analgesic effect on osteoarthritic knees, topical lotion. To be noted: 1% (w/w) lotion. How it is done:
One gram of the tetrapeptide derivative N-Pg-Tyr-Pro-Phe-Phe-NH2(SEQ ID NO: 44) was dissolved in propylene glycol (33 ml) and diisopropyl adipate (33 ml), and the resultant solution was mixed with an oil-in-water emulsion (33 g) to yield a light lotion containing 1% (w/w) of […] (SEQ ID NO: 44). This lotion was generously applied topically to the knees and lower legs of a subject, having very severe osteoarthritis of the knees for many years. After topical application of the lotion to the lower legs and knees, plastic film was applied to cover the treated areas. The plastic film was removed 8 hours later. […] Pain began to return after about 4 days.

For experiment [11], the system named is painful arthritis of hands. Description: Example 76: analgesic effect on arthritis pain of the hands, topical. To be noted: 0.5% (w/v) in WEP442, topical; before about 20 minutes. As to the method:
A subject, and a veteran guitar player, was able to play their instrument in previous years for about an hour in group session performances. […] The subject reported that topical application to their hands of a composition containing 0.5% (w/v) of N-Pg-Tyr-Pro-Phe-Phe-NH2 (SEQ ID NO: 44) in WEP442 enabled them to play their guitar for 1 hour pain free. They also noted that the quality of their performance had improved.

Non-standard residues stand in square brackets, D forms with d. pGlu = O=C1CC[C@@H](C(=O)O)N1

We go through two molecules from patent US20190248834A1, “ENDOMORPHIN-2, TETRAPEPTIDE DERIVATIVES THEREOF, AND USES THEREOF” (priority 2016, published 2019).

Consider `CC(=O)N[C@@H](Cc1ccc(O)cc1)C(=O)N1CCC[C@H]1C(=O)N[C@@H](Cc1ccccc1)C(=O)N[C@@H](Cc1ccccc1)C(N)=O` [N-Ac-Tyr-Pro-Phe-Phe-NH2], for which the headache relief result in experiment [1] is on record as “almost immediate, complete, relief of their aching head”. The “duration of pain relief” value in experiment [2] was 6 to 8 h; in experiment [3], “about 4 hours”; in experiment [7] (1% (w/v) in WEP442, topical), “No pain occurred until the next evening”. Besides, the pain relief result in [2] was “undetectable”; in experiment [3], “complete relief of pain”; in experiment [4] it was “rapid complete relief of pain”; in experiment [7] (1% (w/v) in WEP442, single topical application) it was “completely relieved the pain”; in [8], “all pain and other symptoms disappeared”. Moreover, the relief of pain in experiment [5] (0.5% (w/v) in EP73, re-applied at bedtime, following morning) is given as 85-90%; in [5] (0.5% (w/v) in EP73, topical at night, next morning), 70%. In addition, the “relief of pain and swelling” value in [6] is “pain and much of the swelling disappeared”. The time to relief result in experiment [6] was “almost immediately”. Also, the “time to pain relief” value in experiment [7] (1% (w/v) in WEP442, topical) is not above 1 min; in experiment [8] it was not above 5 min. Besides, the recurrence entry in experiment [8] was “no recurrence of any migraine headache during the next week”.
As for “N-Pg-Tyr-Pro-Phe-Phe-NH2 ([pGlu]YPFF-NH2; SMILES NC(=O)[C@H](Cc1ccccc1)NC(=O)[C@H](Cc1ccccc1)NC(=O)[C@@H]1CCCN1C(=O)[C@H](Cc1ccc(O)cc1)NC(=O)[C@@H]1CCC(=O)N1)”, the “duration of pain relief” value is reported as “more than 6 hours” in [9] and “about 4 hours” in [3]. The pain relief entry in experiment [9] was “immediate and complete relief of knee pain and foot pain”; in [10] (under plastic film 8 hours, daily for 3 days), “pain had subsided almost completely”; in experiment [3] it was “complete relief of pain”; in experiment [4], “rapid relief of pain”. In addition, in experiment [10], the “time to return of pain” value is given as “about 4 days”. Further, in [11], the “pain free guitar playing time” value is 1 h.
